Several values for one entry are separate records, joined by “and”; a condition that tells them apart may be missing. Equal entries are not always repeated.
Test system: 997726-040-R-J2-PDC tumor spheroids, viability
Assay: Anticancer human tumor 997726-040-R-J2-PDC patient-derived squamous cell lung carcinoma cell line growth inhibition [PI3K]
Details: spheroids with HUVEC and MSC; for viability, T/C: stronger effect = lower value
From the text: Combinatorial screen of targeted agents with the PI3K inhibitors inavolisib, alpelisib, duvelisib, and copanlisib in multi-cell type tumor spheroids
A high-throughput screen of multi-cell type tumor spheroids was designed to identify active combinations of targeted small molecules and PI3K pathway inhibitors. Complex spheroids include a stromal component modeled by human endothelial cells (HUVEC) and fibroblasts modeled by human mesenchymal stem cells (MSCs). The concentration ranges selected for each drug and investigational agent were based upon clinically achievable concentrations if the clinical Cmax of the agent was known.
Compounds. The drugs and investigational agents: inavolisib (NSC800729), alpelisib (NSC765974), duvelisib (NSC772469), copanlisib (NSC816437), ipatasertib (NSC767898), afuresertib (NSC778305), talazoparib (NSC767125), sapanisertib (NSC764658), selumetinib (NSC741078), tovorafenib (DAY101, NSC766906), vemurafenib (NSC761431), ravoxertinib (NSC781343), sotorasib (NSC818433), MRTX1133 (NSC 836407), abemaciclib (NSC 768073), palbociclib (NSC758247), venetoclax (NSC 766270), SY5609 (NSC837396), enzalutamide (NSC755605), and darolutamide (NSC825331), were obtained from the National Cancer Institute (NCI) Developmental Therapeutics Program Chemical Repository. The FDA-approved anticancer drug set is available from the NCI Developmental Therapeutics Program. […] The stock solutions were prepared in dimethyl sulfoxide (DMSO, Sigma-Aldrich, St. Louis, MO, cat. D2650) at 800-fold the tested concentration and stored at -70 degrees C prior to their use. All drugs and investigational agents were tested over a range starting from a high concentration at or near the clinical Cmax and decreasing in half-log increments. If the clinical Cmax for an agent had not been determined, the highest concentration tested was 10 microM.
Cell Culture. All cells were maintained in an incubator at 37 degrees C and 5% CO2 with 95% humidity. The PDC lines were cultured according to standard operating procedures established by the NCI PDMR (https://pdmr.cancer.gov/sops/default.htm). All PDCs were thawed and cultured in Matrigel-coated flasks prepared with a working solution of 1X Ham's F-12 nutrient mix, without supplementation (Invitrogen, Waltham, MA, cat. 11765054), 100 U/mL penicillin-streptomycin (Invitrogen, cat. 15140122), and 2.5% Matrigel (Corning Inc., Corning, NY, cat. 354248) for the first three passages. The 354836-022-R-J1-PDC, 475296-252-R-J1-PDC, and 997726-040-R-J2-PDC lines were cultured in 6A media, which includes advanced DMEM/F-12 (Thermo Fisher Scientific, cat. 12634028), 10 mM HEPES (Thermo Fisher Scientific, cat. 15630080), 1X GlutaMAX supplement (Thermo Fisher Scientific, cat. 35050061), 0.1 mg/mL primocin (InvivoGen, San Diego, CA, cat. ant-pm-2), 10% defined fetal bovine serum, heat inactivated (HyClone Laboratories Inc., Logan, UT, cat. SH30070.03HI), 50% L-WRN conditioned media (ATCC, cat. CRL-3276), 1.25 mM N-Acetyl-L-cysteine (Sigma-Aldrich, cat. A9165), 10 mM nicotinamide (Sigma-Aldrich, cat. N0636), 1X B-27 supplement (Thermo Fisher Scientific, cat. 17504044), 1X N-2 supplement (Thermo Fisher Scientific, cat. 17502048), and 10 microM Y-27632 dihydrochloride (Tocris Bioscience, Bristol, United Kingdom, cat. 1254). The 624824-186-R-J2-PDC line was cultured in 6C/Colon 1B media, which includes all 6A media components plus 50 ng/mL human EGF recombinant protein (Thermo Fisher Scientific, cat. PHG0311). […]
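Further: spheroids exposed to compounds for seven days before readout.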

## CC1(C)CCC(CN2CCN(c3ccc(C(=O)NS(=O)(=O)c4ccc(NCC5CCOCC5)c([N+](=O)[O-])c4)c(Oc4cnc5[nH]ccc5c4)c3)CC2)=C(c2ccc(Cl)cc2)C1 + CC(Nc1ncnc2nc[nH]c12)c1cc2cccc(Cl)c2c(=O)n1-c1ccccc1
Curve of first compound, second compound 0.0316 µM
  IC50: > 10 µM
Curve of first compound, second compound 0.1 µM
  IC50: 9.87 µM
Curve of first compound, second compound 0.316 µM
  IC50: 9.36 µM
Curve of first compound, second compound 1 µM
  IC50: > 10 µM
Curve of first compound, second compound 3.16 µM
  IC50: 6.26 µM
Curve of first compound, second compound 10 µM
  IC50: 3.37 µM
Second compound 0.0316 µM, first compound 0.0316 µM
  viability, T/C: 101%
Second compound 0.0316 µM, first compound 0.1 µM
  viability, T/C: 87.9%
Second compound 0.0316 µM, first compound 0.316 µM
  viability, T/C: 93.4%
Second compound 0.0316 µM, first compound 1 µM
  viability, T/C: 102%
Second compound 0.0316 µM, first compound 3.16 µM
  viability, T/C: 104%
Second compound 0.0316 µM, first compound 10 µM
  viability, T/C: 52.2%
Second compound 0.1 µM, first compound 0.0316 µM
  viability, T/C: 102%
Second compound 0.1 µM, first compound 0.1 µM
  viability, T/C: 94%
Second compound 0.1 µM, first compound 0.316 µM
  viability, T/C: 109%
Second compound 0.1 µM, first compound 1 µM
  viability, T/C: 105%
Second compound 0.1 µM, first compound 3.16 µM
  viability, T/C: 98.6%
Second compound 0.1 µM, first compound 10 µM
  viability, T/C: 49.4%
Second compound 0.316 µM, first compound 0.0316 µM
  viability, T/C: 97.1%
Second compound 0.316 µM, first compound 0.1 µM
  viability, T/C: 95.4%
Second compound 0.316 µM, first compound 0.316 µM
  viability, T/C: 103%
Second compound 0.316 µM, first compound 1 µM
  viability, T/C: 93.5%
Second compound 0.316 µM, first compound 3.16 µM
  viability, T/C: 91.7%
Second compound 0.316 µM, first compound 10 µM
  viability, T/C: 47.2%
Second compound 1 µM, first compound 0.0316 µM
  viability, T/C: 94.3%
Second compound 1 µM, first compound 0.1 µM
  viability, T/C: 85.7%
Second compound 1 µM, first compound 0.316 µM
  viability, T/C: 92%
Second compound 1 µM, first compound 1 µM
  viability, T/C: 80.6%
Second compound 1 µM, first compound 3.16 µM
  viability, T/C: 89.9%
Second compound 1 µM, first compound 10 µM
  viability, T/C: 51%
Second compound 3.16 µM, first compound 0.0316 µM
  viability, T/C: 73.1%
Second compound 3.16 µM, first compound 0.1 µM
  viability, T/C: 74.5%
Second compound 3.16 µM, first compound 0.316 µM
  viability, T/C: 73%
Second compound 3.16 µM, first compound 1 µM
  viability, T/C: 72.4%
Second compound 3.16 µM, first compound 3.16 µM
  viability, T/C: 71.9%
Second compound 3.16 µM, first compound 10 µM
  viability, T/C: 35.1%
Second compound 10 µM, first compound 0.0316 µM
  viability, T/C: 55.7%
Second compound 10 µM, first compound 0.1 µM
  viability, T/C: 56.4%
Second compound 10 µM, first compound 0.316 µM
  viability, T/C: 48.3%
Second compound 10 µM, first compound 1 µM
  viability, T/C: 53.8%
Second compound 10 µM, first compound 3.16 µM
  viability, T/C: 51.2%
Second compound 10 µM, first compound 10 µM
  viability, T/C: 29.4%

## Cn1cnc2c(F)c(Nc3ccc(Br)cc3Cl)c(C(=O)NOCCO)cc21
Compound 0.00949 µM
  viability, T/C: 77.2% [middle of 4 runs]
Compound 0.03 µM
  viability, T/C: 70.8% [middle of 4 runs]
Compound 0.0949 µM
  viability, T/C: 58.2% [middle of 4 runs]
Compound 0.3 µM
  viability, T/C: 48.6% [middle of 4 runs]
Compound 0.949 µM
  viability, T/C: 48.3% [middle of 4 runs]
Compound 3 µM
  viability, T/C: 40.8% [middle of 4 runs]

## Cn1ncnc1[C@H]1c2n[nH]c(=O)c3cc(F)cc(c23)N[C@@H]1c1ccc(F)cc1
Compound 0.000316 µM
  viability, T/C: 98.9% [middle of 4 runs]
Compound 0.001 µM
  viability, T/C: 99.5% [middle of 4 runs]
Compound 0.00316 µM
  viability, T/C: 96.6% [middle of 4 runs]
Compound 0.01 µM
  viability, T/C: 98.5% [middle of 4 runs]
Compound 0.0316 µM
  viability, T/C: 116% [middle of 4 runs]
Compound 0.1 µM
  viability, T/C: 102% [middle of 4 runs]
Curve of compound
  IC50: > 0.1 µM

## CC(Nc1ncnc2nc[nH]c12)c1cc2cccc(Cl)c2c(=O)n1-c1ccccc1 (configuration not stated)
Compound 0.0316 µM
  viability, T/C: 106% [middle of 8 runs]
Compound 0.1 µM
  viability, T/C: 99.4% [middle of 8 runs]
Compound 0.316 µM
  viability, T/C: 94.3% [middle of 8 runs]
Compound 1 µM
  viability, T/C: 86.6% [middle of 8 runs]
Compound 3.16 µM
  viability, T/C: 70.8% [middle of 8 runs]
Compound 10 µM
  viability, T/C: 54.7% [middle of 8 runs]
Compound alone, run of 06/13/2023
  IC50: > 10 µM and 9.01 µM

From PubChem BioAssay AID1963964 (Molecular Pharmacology Branch, DTP, NCI, 2024)
